Consider two molecules from patent US20250115582A1, “MOLECULAR GLUE DEGRADERS AND METHODS OF USING THE SAME” (Monte Rosa Therapeutics, Inc., priority 2022, published 2025).

In one series the target is T1, CK1α (Homo sapiens, UniProt P48729+Q96SW2).
T1 construct: HEK293 clonal line with CRISPR KI HiBiT tag on CSNK1A1; host or cells: HEK293 clonal line, CRISPR HiBiT knock-in at CSNK1A1, stably expressing LgBiT
The series can be described thus: CK1α NanoBiT assay (HiBiT-tagged CSNK1A1 in HEK293 clonal line). The following applies: HEK293 HiBiT-CSNK1A1/LgBiT cells, 24 h incubation, luminescence. Type of series: cell-based. The method in brief:
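HiBiT knock-in CSNK1A1 HEK293 cells stably expressing LgBiT were plated at 5000 cells/well in DMEM/10% FBS with 0.2% Endurazine live-cell substrate and pre-incubated 16 h. Compound was added to a final […] for 24 h at 37 °C before the luminescence read. Signal was normalised to plate controls, and DC50 came from a 3-parameter logistic fit (hillslope 1).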
(In general: The HiBiT peptide binds its large partner to form an active luciferase.)

A further series concerns CW2. The series is described as follows: GI50 growth inhibition, CyQUANT, CW2. The following applies: Homo sapiens, CW-2, CW2 cells, 120 to 168 hours. Format: cell-based. As for the experimental part: (§1) SKCO1, LS180, and LS174T cell lines were purchased from ATCC. CW2 cell line was purchased from Riken. GP2D cell line was purchased from Sigma/ECACC. All cell lines were cultured in manufacturer's recommended media at 37° C., 5% CO2. Briefly, cells were suspended in 200 μL of media and seeded at 300 to 1,800 cells per well in tissue culture treated 96-well plates with black walls and clear bottom. Plates were incubated overnight and initial (T0) read was performed the following day using CyQUANT Direct Cell Proliferation Assay Kit (Thermo Fisher Scientific) according to manufacturer's protocol. All compounds were solubilized in DMSO and prepared at 3-fold serial dilution, using 9 points starting at 30 μM as highest concentration, administered to cells and incubated for 120 to 168 hours, at which point CyQUANT assay measurement was performed using Acumen Cellista instrument (Ex/Em 480/520 nm). Media-only wells were used as blank, and 0.3% DMSO was used as DMSO-treated cell control. Growth inhibition (percent response) was calculated using the following formula in Excel: “=if ([Compound treated Day N]>[Untreated Day 0, AVG], ([Compound treated Day N]−[Untreated Day 0, AVG])/([Untreated Day N]−[Untreated Day 0, AVG])*100, ([Compound Treated Day N]−[Untreated Day 0, AVG])/([Untreated Day 0, AVG])*100)”. GI50 is the response corresponding to the 50% of untreated control.
(§2) GI50 data are reported in Tables 4a, 4b, 4c, 4d, and 4e for compounds in Table 1. In Tables 4a, 4b, 4c, 4d, and 4e below, According to the code, A represents a GI50 value of ≤0.1 μM, B represents a GI50 value>0.1 μM and ≤1 μM, C represents an GI50 value>1 μM.

A further series concerns GP2D. The series is described as follows: GI50 growth inhibition, CyQUANT, GP2D. Type of series: cell-based. Conditions: GP2D cells, 120 to 168 hours. The method, then:
as §1, §2

Another series deals with LS180. The series can be described thus: GI50 growth inhibition, CyQUANT, LS180. The following applies: Homo sapiens, LS180 cells, 120 to 168 hours. Type of series: cell-based. As for the experimental part: as §1, §2
Series [1] is described as follows: Mouse oral PK at 10 mg/kg. Type of series: in vivo. The following applies: male BALB/c mice, PO 10 mg/kg, plasma. As for the experimental part: Male BALB/c mice were fasted overnight and administered a discrete, PO dose of Compound 154 or Compound 147 at 10 mg/kg.
Blood samples were collected serially from three animals/time-point following PO administration of the test compounds to the mice and placed in tubes containing K2EDTA. The blood samples were centrifuged, and the aliquots of the resulting plasma stored frozen at −60 to −90° C.
The plasma samples were analyzed by LC-MS/MS to determine concentrations of the test compounds. The in-life portion of the study and the bioanalysis of plasma samples was conducted at Wuxi (China).
The pharmacokinetic parameters for compound 154 or compound 147 were calculated by non-compartmental analysis using Phoenix WinNonlin software.

T1 sequence (P48729 whole entry): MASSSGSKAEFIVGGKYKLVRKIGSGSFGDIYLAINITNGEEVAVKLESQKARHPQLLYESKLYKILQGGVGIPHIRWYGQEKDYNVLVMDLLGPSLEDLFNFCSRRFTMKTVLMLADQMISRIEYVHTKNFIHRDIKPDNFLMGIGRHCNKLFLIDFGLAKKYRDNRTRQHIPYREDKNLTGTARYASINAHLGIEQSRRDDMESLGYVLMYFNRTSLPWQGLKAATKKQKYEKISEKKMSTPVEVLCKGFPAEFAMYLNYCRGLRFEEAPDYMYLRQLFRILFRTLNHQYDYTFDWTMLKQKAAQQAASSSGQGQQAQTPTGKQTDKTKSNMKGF
T1 sequence (Q96SW2 whole entry): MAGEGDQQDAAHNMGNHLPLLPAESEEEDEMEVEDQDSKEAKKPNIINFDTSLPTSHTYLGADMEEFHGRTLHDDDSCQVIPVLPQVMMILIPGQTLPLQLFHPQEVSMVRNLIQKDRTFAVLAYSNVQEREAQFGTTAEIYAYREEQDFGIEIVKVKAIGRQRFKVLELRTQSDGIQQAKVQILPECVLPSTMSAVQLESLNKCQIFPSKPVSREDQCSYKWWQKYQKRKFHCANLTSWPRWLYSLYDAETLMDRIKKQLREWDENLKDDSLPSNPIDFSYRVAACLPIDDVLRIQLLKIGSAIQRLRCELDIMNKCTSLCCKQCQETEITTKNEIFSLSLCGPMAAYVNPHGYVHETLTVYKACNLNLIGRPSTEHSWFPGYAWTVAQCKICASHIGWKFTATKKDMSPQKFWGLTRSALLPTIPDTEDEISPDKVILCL
T1 sequence (Q16531 2-1140 partner limits assumed): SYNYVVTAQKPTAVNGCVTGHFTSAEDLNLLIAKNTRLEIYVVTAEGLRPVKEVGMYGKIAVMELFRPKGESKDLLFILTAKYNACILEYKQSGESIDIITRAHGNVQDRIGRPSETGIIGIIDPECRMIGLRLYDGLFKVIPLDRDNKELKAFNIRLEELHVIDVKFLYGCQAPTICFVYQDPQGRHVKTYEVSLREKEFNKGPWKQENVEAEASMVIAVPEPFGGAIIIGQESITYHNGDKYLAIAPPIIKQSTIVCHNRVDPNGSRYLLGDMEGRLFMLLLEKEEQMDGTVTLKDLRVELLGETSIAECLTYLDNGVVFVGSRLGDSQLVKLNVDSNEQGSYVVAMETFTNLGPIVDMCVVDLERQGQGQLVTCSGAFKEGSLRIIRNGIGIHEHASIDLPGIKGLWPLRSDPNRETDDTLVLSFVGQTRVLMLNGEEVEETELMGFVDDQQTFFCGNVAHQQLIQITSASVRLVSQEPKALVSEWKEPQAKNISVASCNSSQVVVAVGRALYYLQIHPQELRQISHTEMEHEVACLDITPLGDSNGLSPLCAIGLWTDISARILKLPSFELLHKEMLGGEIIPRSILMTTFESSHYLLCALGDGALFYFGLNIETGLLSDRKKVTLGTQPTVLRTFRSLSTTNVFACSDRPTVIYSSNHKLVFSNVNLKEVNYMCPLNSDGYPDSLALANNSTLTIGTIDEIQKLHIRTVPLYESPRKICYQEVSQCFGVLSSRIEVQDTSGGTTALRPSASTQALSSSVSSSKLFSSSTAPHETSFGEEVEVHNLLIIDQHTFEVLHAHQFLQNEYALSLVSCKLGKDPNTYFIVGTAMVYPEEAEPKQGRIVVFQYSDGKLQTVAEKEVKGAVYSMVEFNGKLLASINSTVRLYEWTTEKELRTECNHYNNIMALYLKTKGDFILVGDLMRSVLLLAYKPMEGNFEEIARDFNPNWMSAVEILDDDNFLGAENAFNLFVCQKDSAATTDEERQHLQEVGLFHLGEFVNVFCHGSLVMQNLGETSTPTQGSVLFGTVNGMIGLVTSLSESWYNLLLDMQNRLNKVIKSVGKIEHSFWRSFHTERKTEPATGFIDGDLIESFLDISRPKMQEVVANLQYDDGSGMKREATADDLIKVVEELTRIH

As a reminder, the GI50 is the concentration that inhibits growth by half. Higher therefore signals lower sensitivity of the cells. As usually defined, the Tmax is the time at which the peak concentration occurs. The term AUC denotes the area under the concentration-time curve, a measure of exposure. A lower AUC goes with less exposure. Usually AUC(0-t) stands for the area under the concentration-time curve up to a stated or last time point. A lower AUC(0-t) goes with low exposure. As usually defined, the Cmax is the highest concentration seen after dosing. With `O=C1CCC(N2Cc3cc(NC(=O)c4ccc(Cl)cc4)ccc3C2=O)C(=O)N1` (centres unmarked) [Compound 147], on CK1α, the DC50 is less than 0.1 µM. Moreover, the GI50 with CW2 is 100 to 1000 nM. In addition, the GI50 with GP2D is more than 1000 nM. In the series with LS180, this molecule yielded a GI50 of more than 1000 nM. Besides, the Tmax in series [1] came out at 0.5 h. Further, in series [1] (Mean ± SD), the exposure (AUC) stood at 1210 ± 235 ng·h/mL, the exposure AUC(0-t) came out at 1170 ± 258 ng·h/mL and the highest level (Cmax) was 574 ± 76.8 ng/mL.
Usually half-life stands for how long it takes for the measured level to halve. Higher therefore signals slow loss. With `O=C1CCC(N2Cc3cc(NC(=O)c4ncn(-c5ccccc5)c4C(F)(F)F)ccc3C2=O)C(=O)N1` (centres unmarked) [Compound 154, N-(2-(2,6-dioxopiperidin-3-yl)-1-oxoisoindolin-5-yl)-1-phenyl-5-(trifluoromethyl)-1H-imidazole-4-carboxamide], the DC50 at CK1α is less than 0.1 µM. In the series on CW2, this molecule returned a GI50 of less than 100 nM. The GI50 with GP2D fell in the range of 100 to 1000 nM. This molecule yielded a GI50 in the series with LS180 of 100 to 1000 nM. Moreover, in series [1], the Tmax amounted to 1 h. In series [1] (Mean ± SD), this molecule showed an AUC of 50900 ± 10400 ng·h/mL, an AUC(0-t) of 50900 ± 10300 ng·h/mL, a Cmax of 12900 ± 2560 ng/mL and a half-life of 2.19 ± 0.24 h.
